Test results: US8729078B2, “Inhibitors of bruton's tyrosine kinase” (Hoffmann-La Roche Inc., priority 2011, dated 2014)

biological target: Btk (Homo sapiens (Human), UniProt Q06187); assay: Bruton's Tyrosine Kinase (Btk) inhibition assay (FRET BTK); format: biochemical
Sequence (Q06187 whole entry): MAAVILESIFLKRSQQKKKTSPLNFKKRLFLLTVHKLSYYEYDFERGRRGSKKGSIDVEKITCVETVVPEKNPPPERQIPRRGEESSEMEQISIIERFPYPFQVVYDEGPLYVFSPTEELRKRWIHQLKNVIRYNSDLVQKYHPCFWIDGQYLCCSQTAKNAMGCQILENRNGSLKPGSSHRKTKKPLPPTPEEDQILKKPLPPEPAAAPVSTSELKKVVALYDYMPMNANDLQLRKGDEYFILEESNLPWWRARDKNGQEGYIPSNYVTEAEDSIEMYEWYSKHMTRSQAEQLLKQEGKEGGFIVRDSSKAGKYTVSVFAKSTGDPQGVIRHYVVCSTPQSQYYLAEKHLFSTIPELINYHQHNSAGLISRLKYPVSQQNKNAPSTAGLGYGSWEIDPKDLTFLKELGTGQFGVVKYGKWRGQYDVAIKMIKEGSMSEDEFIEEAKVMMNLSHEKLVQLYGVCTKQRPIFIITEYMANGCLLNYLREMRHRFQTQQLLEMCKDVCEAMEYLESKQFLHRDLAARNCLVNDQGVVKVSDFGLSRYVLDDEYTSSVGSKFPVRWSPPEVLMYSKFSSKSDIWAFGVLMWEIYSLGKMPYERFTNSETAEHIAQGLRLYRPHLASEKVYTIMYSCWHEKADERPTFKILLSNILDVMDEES

Structure (SMILES) | IC50
CC(C)(C)c1cc(F)c2c(=O)n(-c3cccc(-n4cc(C(N)=O)cn4)c3)ncc2c1 [Compound I-56, 1-[3-(6-tert-Butyl-8-fluoro-1-oxo-1H-phthalazin-2-yl)-phenyl]-1H-pyrazole-4-carboxylic acid amide] | 3700 nM
CC(C)(CN1CCC1)Oc1ccc(Nc2nn(-c3cccc(-n4ncc5cc(C(C)(C)C)cc(F)c5c4=O)c3CO)cc2C(N)=O)nc1 [Compound I-24, 3-[5-(2-Azetidin-1-yl-1,1-dimethyl-ethoxy)-pyridin-2-ylamino]-1-[3-(6-tert-butyl-8-fluoro-1-oxo-1H-phthalazin-2-yl)-2-hydroxymethyl-phenyl]-1H-pyrazole-4-carboxylic acid amide] | 0.18 nM
CC(C)(C)c1cc(F)c2c(=O)n(-c3cccc(-n4cc(C(N)=O)c5ccc(Br)nc54)c3CO)ncc2c1 [Compound I-48, 6-Bromo-1-[3-(6-tert-butyl-8-fluoro-1-oxo-1H-phthalazin-2-yl)-2-hydroxymethyl-phenyl]-1H-pyrrolo[2,3-b]pyridine-3-carboxylic acid amide] | 7.74 nM
CC(C)(C)c1cc(F)c2c(=O)n(-c3cccc(-n4ccc(C(N)=O)n4)c3CO)ncc2c1 [Compound I-40, 1-[3-(6-tert-Butyl-8-fluoro-1-oxo-1H-phthalazin-2-yl)-2-hydroxymethyl-phenyl]-1H-pyrazole-3-carboxylic acid amide] | 333 nM
CC(C)(C)c1cc(F)c2c(=O)n(-c3cccc(-n4cc(C(N)=O)c(Nc5cnccn5)n4)c3CO)ncc2c1 [Compound I-29, 1-[3-(6-tert-Butyl-8-fluoro-1-oxo-1H-phthalazin-2-yl)-2-hydroxymethyl-phenyl]-3-(pyrazin-2-ylamino)-1H-pyrazole-4-carboxylic acid amide] | 0.43 nM
CC(C)(C)c1cc(F)c2c(=O)n(-c3cccc(-n4cc(C(N)=O)c(Nc5ccc(Cl)cn5)n4)c3CO)ncc2c1 [Compound I-23, 1-[3-(6-tert-Butyl-8-fluoro-1-oxo-1H-phthalazin-2-yl)-2-hydroxymethyl-phenyl]-3-(5-chloro-pyridin-2-ylamino)-1H-pyrazole-4-carboxylic acid amide] | 0.29 nM
CC(C)(C)c1cc(F)c2c(=O)n(-c3cccc(-n4cc(C(N)=O)c(Nc5ccc(F)cn5)n4)c3CO)ncc2c1 [Compound I-30, 1-[3-(6-tert-Butyl-8-fluoro-1-oxo-1H-phthalazin-2-yl)-2-hydroxymethyl-phenyl]-3-(5-fluoro-pyridin-2-ylamino)-1H-pyrazole-4-carboxylic acid amide] | 0.24 nM
CC(C)(C)c1cc(F)c2c(=O)n(-c3cccc(-n4cc(C(N)=O)c5cncnc54)c3CO)ncc2c1 [Compound I-42, 7-[3-(6-tert-Butyl-8-fluoro-1-oxo-1H-phthalazin-2-yl)-2-hydroxymethyl-phenyl]-7H-pyrrolo[2,3-d]pyrimidine-5-carboxylic acid amide] | 7.32 nM
Cn1ccc(Nc2nn(-c3cccc(-n4ncc5cc(C(C)(C)C)cc(F)c5c4=O)c3CO)cc2C(N)=O)n1 [Compound I-28, 1-[3-(6-tert-Butyl-8-fluoro-1-oxo-1H-phthalazin-2-yl)-2-hydroxymethyl-phenyl]-3-(1-methyl-1H-pyrazol-3-ylamino)-1H-pyrazole-4-carboxylic acid amide] | 0.22 nM
Cn1cc(-c2cccc(-n3ccc4cc(C5CC5)cc(F)c4c3=O)c2CO)cc1C(N)=O [Compound I-13, 4-[3-(6-Cyclopropyl-8-fluoro-1-oxo-1H-isoquinolin-2-yl)-2-hydroxymethyl-phenyl]-1-methyl-1H-pyrrole-2-carboxylic acid amide] | 39.4 nM
Cc1cc(Nc2nn(-c3cccc(-n4ncc5cc(C(C)(C)C)cc(F)c5c4=O)c3CO)cc2C(N)=O)nn1C [Compound I-31, 1-[3-(6-tert-Butyl-8-fluoro-1-oxo-1H-phthalazin-2-yl)-2-hydroxymethyl-phenyl]-3-(1,5-dimethyl-1H-pyrazol-3-ylamino)-1H-pyrazole-4-carboxylic acid amide] | 0.29 nM
Cc1ccc(Nc2nn(-c3cccc(-n4ncc5cc(C(C)(C)C)ccc5c4=O)c3CO)cc2C(N)=O)nc1 [Compound I-37, 1-[3-(6-tert-Butyl-1-oxo-1H-phthalazin-2-yl)-2-hydroxymethyl-phenyl]-3-(5-methyl-pyridin-2-ylamino)-1H-pyrazole-4-carboxylic acid amide] | 1.13 nM
CC(C)(C)c1ccc2c(=O)n(-c3cccc(-n4cc(C(N)=O)c(Nc5cnccn5)n4)c3CO)ncc2c1 [Compound I-36, 1-[3-(6-tert-Butyl-1-oxo-1H-phthalazin-2-yl)-2-hydroxymethyl-phenyl]-3-(pyrazin-2-ylamino)-1H-pyrazole-4-carboxylic acid amide] | 0.83 nM
CN(C)CCNc1ccc2c(C(N)=O)cn(-c3cccc(-n4ncc5cc(C(C)(C)C)cc(F)c5c4=O)c3CO)c2n1 [Compound I-51, 1-[3-(6-tert-Butyl-8-fluoro-1-oxo-1H-phthalazin-2-yl)-2-hydroxymethyl-phenyl]-6-(2-dimethylamino-ethylamino)-1H-pyrrolo[2,3-b]pyridine-3-carboxylic acid amide] | 3560 nM
CC(C)(C)c1cc(F)c2c(=O)n(-c3cccc(-n4cc(C(N)=O)c(Nc5ccc(S(C)(=O)=O)cn5)n4)c3CO)ncc2c1 [Compound I-38, 1-[3-(6-tert-Butyl-8-fluoro-1-oxo-1H-phthalazin-2-yl)-2-hydroxymethyl-phenyl]-3-(5-methanesulfonyl-pyridin-2-ylamino)-1H-pyrazole-4-carboxylic acid amide] | 0.17 nM
Cc1cc(Nc2nn(-c3cccc(-n4ncc5cc(C(C)(C)C)ccc5c4=O)c3CO)cc2C(N)=O)nn1C [Compound I-34, 1-[3-(6-tert-Butyl-1-oxo-1H-phthalazin-2-yl)-2-hydroxymethyl-phenyl]-3-(1,5-dimethyl-1H-pyrazol-3-ylamino)-1H-pyrazole-4-carboxylic acid amide] | 0.51 nM
CC(C)(C)c1cc(F)c2c(=O)n(-c3cccc(-n4cc(C(N)=O)c(Nc5ccc(C#N)cn5)n4)c3CO)ncc2c1 [Compound I-39, 1-[3-(6-tert-Butyl-8-fluoro-1-oxo-1H-phthalazin-2-yl)-2-hydroxymethyl-phenyl]-3-(5-cyano-pyridin-2-ylamino)-1H-pyrazole-4-carboxylic acid amide] | 0.18 nM
CC(C)(C)c1cc(F)c2c(=O)n(-c3cccc(-n4cc(C(N)=O)c(Nc5ccccn5)n4)c3CO)ncc2c1 [Compound I-26, 1-[3-(6-tert-Butyl-8-fluoro-1-oxo-1H-phthalazin-2-yl)-2-hydroxymethyl-phenyl]-3-(pyridin-2-ylamino)-1H-pyrazole-4-carboxylic acid amide] | 0.36 nM
CC(C)(C)c1cc(F)c2c(=O)n(-c3cccc(-n4cc(C(N)=O)c5ccc(-c6ccccc6F)nc54)c3CO)ncc2c1 [Compound I-46, 1-[3-(6-tert-Butyl-8-fluoro-1-oxo-1H-phthalazin-2-yl)-2-hydroxymethyl-phenyl]-6-(2-fluoro-phenyl)-1H-pyrrolo[2,3-b]pyridine-3-carboxylic acid amide] | 14.3 nM
CC(C)(C)c1cc(F)c2c(=O)n(-c3cccc(-n4cc(C(N)=O)c(Nc5ccc(C(F)(F)F)cn5)n4)c3CO)ncc2c1 [Compound I-32, 1-[3-(6-tert-Butyl-8-fluoro-1-oxo-1H-phthalazin-2-yl)-2-hydroxymethyl-phenyl]-3-(5-trifluoromethyl-pyridin-2-ylamino)-1H-pyrazole-4-carboxylic acid amide] | 0.57 nM
CCOc1ccc(-c2ccc3c(C(N)=O)cn(-c4cccc(-n5ncc6cc(C(C)(C)C)cc(F)c6c5=O)c4CO)c3n2)cn1 [Compound I-45, 1-[3-(6-tert-Butyl-8-fluoro-1-oxo-1H-phthalazin-2-yl)-2-hydroxymethyl-phenyl]-6-(6-ethoxy-pyridin-3-yl)-1H-pyrrolo[2,3-b]pyridine-3-carboxylic acid amide] | 11 nM
CN1CCn2nc(Nc3nn(-c4cccc(-n5ncc6cc(C(C)(C)C)cc(F)c6c5=O)c4CO)cc3C(N)=O)cc2C1 [Compound I-25, 1-[3-(6-tert-Butyl-8-fluoro-1-oxo-1H-phthalazin-2-yl)-2-hydroxymethyl-phenyl]-3-(5-methyl-4,5,6,7-tetrahydro-pyrazolo[1,5-a]pyrazin-2-ylamino)-1H-pyrazole-4-carboxylic acid amide] | 0.09 nM
CN(C)Cc1ccc(Nc2nn(-c3cccc(-n4ncc5cc(C(C)(C)C)ccc5c4=O)c3CO)cc2C(N)=O)nc1 [Compound I-55, 1-[3-(6-tert-Butyl-1-oxo-1H-phthalazin-2-yl)-2-hydroxymethyl-phenyl]-3-(5-dimethylaminomethyl-pyridin-2-ylamino)-1H-pyrazole-4-carboxylic acid amide] | 0.39 nM
CC(C)(C)c1ccc2c(=O)n(-c3cccc(-n4cc(C(N)=O)c(Nc5ccccn5)n4)c3CO)ncc2c1 [Compound I-54, 1-[3-(6-tert-Butyl-1-oxo-1H-phthalazin-2-yl)-2-hydroxymethyl-phenyl]-3-(pyridin-2-ylamino)-1H-pyrazole-4-carboxylic acid amide] | 0.95 nM
CC(C)(C)c1cc(F)c2c(=O)n(-c3cccc(-n4cc(C(N)=O)c5ccc(N6CCOCC6)nc54)c3CO)ncc2c1 [Compound I-44, 1-[3-(6-tert-Butyl-8-fluoro-1-oxo-1H-phthalazin-2-yl)-2-hydroxymethyl-phenyl]-6-morpholin-4-yl-1H-pyrrolo[2,3-b]pyridine-3-carboxylic acid amide] | 10.3 nM
Cc1ccc(Nc2nn(-c3cccc(-n4ncc5cc(C(C)(C)C)cc(F)c5c4=O)c3CO)cc2C(N)=O)nc1 [Compound I-33, 1-[3-(6-tert-Butyl-8-fluoro-1-oxo-1H-phthalazin-2-yl)-2-hydroxymethyl-phenyl]-3-(5-methyl-pyridin-2-ylamino)-1H-pyrazole-4-carboxylic acid amide] | 0.24 nM
CC(C)(C)c1cc(F)c2c(=O)n(-c3cccc(-n4cc(C(N)=O)c5ccc(C(O)CO)nc54)c3CO)ncc2c1 (stereo not drawn) [Compound I-49, 1-[3-(6-tert-Butyl-8-fluoro-1-oxo-1H-phthalazin-2-yl)-2-hydroxymethyl-phenyl]-6-(1,2-dihydroxy-ethyl)-1H-pyrrolo[2,3-b]pyridine-3-carboxylic acid amide] | 13.9 nM
